The subject of experiment [1] is PMM2-CDG and healthy fibroblasts. Kind of experiment: Metabolomic profiling (LC/MS, GC/MS) of fibroblasts treated with epalrestat. In kind it is cell-based, human. On the procedure: Patient (P1-P6) and control fibroblasts were obtained by a skin punch biopsy. Fibroblasts were maintained in low glucose DMEM (Gibco) supplemented with 10% FBS in an incubator at 37 °C, 5% CO2, no longer than two months or until they reached passage 15 to avoid senescence. Routine mycoplasma testing was performed.
Briefly, 15,000 fibroblasts were plated in 1.5 mL DMEM (Gibco, 5.5 mM glucose, 2 mM glutamine, 10% FBS) per well in two 6-well plates. The medium change was performed on day 2 and day 4. On day 6, the medium was removed, cells were washed with ice-cold 0.9% NaCl (Sigma) (physiological solution) and 250 μL of extraction buffer (80% MeOH, IS) was added to the cells. Next, cells were scraped and the cell extracts transferred to 1.5 mL Eppendorf tubes and placed overnight at −80 °C. Next, samples were centrifuged at 15,000 rpm, 4 °C, 20 minutes. The supernatant was transferred to a vial for direct analysis by LC/MS, while 100 μL of 200 mM NaOH was added to the (protein) pellet. Pellets were incubated at 95 °C for 30 minutes after which they were centrifuged at 5,000 rpm, 4 °C, 10 minutes. Supernatant was used to determine protein concentration by BCA protein assay kit (Pierce).
(§1) Fibroblasts were plated in 6-well plates for LC/MS and T75 flasks for GC/MS analysis as described above. After 24 hours, medium was removed and cells washed with PBS. Then, DMEM containing 5.5 mM glucose, 2 mM glutamine, and 10% dialyzed FBS was added. Epalrestat was freshly prepared and fibroblasts were supplemented with 10 μM epalrestat daily. After 48 hours media was changed, and 48 hours after that, metabolites were extracted and measured by both LC/MS and GC/MS. Zebrafish embryos were genotyped at 2 days post fertilization (dpf), and were treated by adding the epalrestat (solubilized in DMSO) directly into the embryo media at 5 dpf. Control embryos were similarly treated with DMSO alone. Embryos were harvested for metabolic analyses 24 hours posttreatment. The final concentration of DMSO was equivalent between control and treatment, never exceeding 0.5%.
An ion-pairing liquid chromatography column (C18) was used to separate 10 μL of sample, after which the metabolites were resolved on a Thermo Fisher Q-Exactive Hybrid Quadrupole-Orbitrap Mass Spectrometer (negative ion mode). The ESI settings were as follows: 50 sheet gas flow rate, auxiliary gas flow rate 15, spray voltage of 4 kV, S-lens RF level of 60, and the capillary temperature at 350 °C. A full scan (resolution 140,000 at 200 m/z, AGC at 3 e6, 512 ms ion fill time, and 70-850 m/z scan range) was performed. The metabolites were identified according to their elution time and m/z ratios by using in-house metabolite standard library and El-Maven v0. 12.0/Polly™ Labeled LC-MS Workflow or Thermo Fisher Xcalibur software. The correction of naturally occurring carbon isotopes was also performed. Relative metabolite abundances were normalized to the internal standard and protein content.
For GC/MS measurements of hexose-P, hexose-bisphosphates, hexose and polyols, fibroblasts were cultured in a similar fashion as for LC/MS with the following adjustments: 1) an appropriate number of fibroblasts was plated in T75 flasks instead of 6-well plates to ensure the optimal amount of metabolite concentration necessary for GC/MS; 2) metabolites were extracted from cells with 2 mL 80% MeOH, IS and the supernatant was transferred to a fresh 2 mL Eppendorf tube. Standards containing metabolites of interest were prepared simultaneously and dried overnight together with cellular extracts by vacuum centrifugation at 4 °C. The following day, 20 μL of methoxyamine (MOX) (Sigma Aldrich) was added to the samples and they were incubated for 90 minutes at 37 °C. Next, 60 μL of N,O-bis(trimethylsilyl)trifluoroacetamide (TMS) (Sigma Aldrich) was added to the samples, which were then incubated at 60 °C for 30 minutes. Samples were kept overnight in a dry and cool place to allow further derivatization with TMS. […]

For experiment [2], the system named is pmm2 mutant zebrafish. Kind of experiment: Metabolomic profiling of zebrafish treated with epalrestat. The format is in vivo. As to conditions: 5 dpf embryos, single dose 10 μM or 40 μM, 24 hours. On the procedure:
Animals were maintained according to standard protocols. The zebrafish strains were obtained from the Zebrafish International Resource Center (ZIRC, Eugene, OR). Pmm2sa10150 mutant zebrafish were established as described elsewhere (Klaver et al., JCI Insight, 6(24):e153474 (2021)).
10 embryos per sample were homogenized by sonication in extraction buffer (80% MeOH, IS). The metabolites were then precipitated at −80 °C overnight, after which the samples were centrifuged at 15,000 rpm, 20 minutes, 4 °C. Next, the supernatant was transferred to a fresh Eppendorf tube. The samples were centrifuged again at 15,000 rpm, 20 minutes, 4 °C to remove any leftover impurities and transferred to a fresh MS vial. Finally, the samples were analyzed by LC/MS.
as §1, with “Control embryos were similarly treated with DMSO alone. Embryos were harvested for metabolic analyses 24 hours posttreatment. The final concentration of DMSO was equivalent between control and treatment, never exceeding 0.5%.” left out

[3] abbreviates: 10 μM daily, patient fibroblasts.

Results on 1 compound are retold here after US20260335294A1, “TREATING CONGENITAL DISORDERS OF GLYCOSYLATION” (Mayo Foundation for Medical Education and Research, priority 2022, published 2026).

SMILES strings stand for the structures. “Also recorded” adds a separate entry of the source.

For `CC(/C=C1\SC(=S)N(CC(=O)O)C1=O)=C\c1ccccc1` [epalrestat], in experiment [1] (10 μM daily), the CMP-sialic acid abundance result was “increased”, the UDP-HexNAc abundance entry is given as “increased”, the UDP-hexose abundance result is reported as “increased” and the glucose-1-P abundance result was “increased”. For the same compound, in experiment [1] (10 μM daily), the hexosamine-P abundance result is on record as “increased”, the hexose-P abundance result is “increased”, the pentose-P abundance entry is recorded as “increased” and the sedoheptulose-7-P abundance result was “increased”. In experiment [1] (10 μM daily, PMM2-CDG fibroblasts), the “Glc-1,6-P2 abundance” value is recorded as “increased; also recorded: significantly increase”. Besides, in experiment [1] (10 μM daily, intracellular), the mannitol abundance entry was “reduced in the majority of patient fibroblasts” and the sorbitol abundance entry is reported as “significantly reduced; also recorded: significantly decreased”. Moreover, in experiment [1] (10 μM daily, patient and control cell lines, dialyzed FBS), the overall polyol pool result is listed as “reduced; also recorded: significantly decreased”. In experiment [1] (setting [3]), the GDP-mannose abundance entry was “increased; also recorded: significantly increase”, the man-1-P abundance entry was “increased; also recorded: significantly increase” and the mannose-6-P abundance result was “increased; also recorded: significantly increase”. Besides, the “GDP-mannose levels vs controls” value in experiment [1] (patient fibroblasts, epalrestat alone) is reported as “never reached the same levels as the ones seen in controls”. For the same compound, in experiment [2], the GDP-mannose level result is reported as “increased” and the polyol levels result is given as “reduced”.
